Source: patent publication US20230374143A1, “A SORTILIN ANTAGONIST FOR USE IN THE PREVENTION OR TREATMENT OF HEARING LOSS” (Insusense ApS, priority 2020, published 2023)

Biological target: T1, SORT (Homo sapiens, UniProt Q99523)
T1 sequence (Q99523 78-831): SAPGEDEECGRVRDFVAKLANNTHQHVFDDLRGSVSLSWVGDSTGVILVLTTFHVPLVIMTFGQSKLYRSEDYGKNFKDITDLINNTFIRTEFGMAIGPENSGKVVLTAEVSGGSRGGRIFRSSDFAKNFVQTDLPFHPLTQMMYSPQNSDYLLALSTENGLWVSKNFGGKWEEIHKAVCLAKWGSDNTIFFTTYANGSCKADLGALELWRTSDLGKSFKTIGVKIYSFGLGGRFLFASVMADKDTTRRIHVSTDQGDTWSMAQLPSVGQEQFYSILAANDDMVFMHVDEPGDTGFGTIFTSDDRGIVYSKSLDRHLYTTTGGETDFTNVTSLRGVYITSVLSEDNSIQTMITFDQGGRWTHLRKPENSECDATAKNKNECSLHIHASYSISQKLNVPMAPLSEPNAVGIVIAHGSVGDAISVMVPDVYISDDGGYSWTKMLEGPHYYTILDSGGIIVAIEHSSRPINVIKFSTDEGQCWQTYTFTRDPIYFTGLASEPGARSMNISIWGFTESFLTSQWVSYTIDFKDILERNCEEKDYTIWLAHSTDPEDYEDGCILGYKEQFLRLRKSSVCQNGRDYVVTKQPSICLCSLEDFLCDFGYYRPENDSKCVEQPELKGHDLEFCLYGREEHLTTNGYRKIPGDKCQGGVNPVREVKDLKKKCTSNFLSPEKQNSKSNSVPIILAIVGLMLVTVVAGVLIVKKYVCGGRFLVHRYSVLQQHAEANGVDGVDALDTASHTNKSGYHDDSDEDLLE
Test: progranulin (PGRN) peptide/SORT homogenous time-resolved fluorescence (HTRF) assay
Type: binding
Settings: SORT 1 nM, biotinylated 18-mer PGRN peptide 4 nM, TR-FRET
Procedure: To determine the IC50s of compounds bound to SORT and thus preventing its interaction with the biotinylated 18-mer PGRN peptide a time-resolved fluorescence resonance energy transfer (TR-FRET) format was used. All test compounds were dissolved in DMSO; the final concentration of DMSO in the reaction buffer was 1%. Compounds were prepared in a ten-point, three-fold serial dilution scheme using an acoustic dispenser. A solution of SORT protein in assay buffer (10 mM HEPES, pH 7.3, 150 mM NaCl, 0.005% Brij-35 and 0.01% BSA, final concentration of SORT 1 nM) was added to each well and pre-incubated with compounds or DMSO vehicle at ambient temperature for 10 min with gentle shaking. Next, biotinylated 18-mer PGRN peptide was added to each well (final concentration 4 nM) and the binding reactions were incubated at ambient temperature for 30 min with gentle shaking. Solutions of SA/Dylight in assay buffer were added to each well, immediately followed by addition of Eu/anti-His in assay buffer. […] Data were analyzed using ABase and a 4-parameter logistic fit based on the Levenberg-Marquardt algorithm.^9

Row | SMILES | IC50
1 | CC(C)(C)CC[C@H](NC(=O)c1ccc(Oc2ccccc2)nc1)C(=O)O (single isomer, unassigned) [Example 44] | 0.02 µM
2 | CC(C)(C)c1cc(C(=O)O)n(Cc2ccccc2)n1 [Example 31, 1-benzyl-3-tert-butyl-1H-pyrazole-5-carboxylic acid] | 2 µM
3 | CC(C)(C)c1cc(C(=O)O)n(Cc2ccc(-n3cccn3)nc2)n1 [Example 33, 3-tert-butyl-1-{[6-(1H-pyrazol-1-yl)pyridin-3-yl]methyl}-1H-pyrazole-5-carboxylic acid] | 3 µM
4 | CC(C)(C)c1cc(C(=O)O)n(Cc2ccc(Oc3ccccc3)nc2)n1 [Example 34, 3-tert-butyl-1-[(6-phenoxypyridin-3-yl)methyl]-1H-pyrazole-5-carboxylic acid] | 2.1 µM
5 | Cn1nc(C(C)(C)C)cc1C(=O)O [Example 35, 3-tert-butyl-1-methyl-1H-pyrazole-5-carboxylic acid] | 8.3 µM
6 | CC(C)(C)c1cc(C(=O)O)n(-c2ccccc2)n1 [Example 36, 3-tert-butyl-1-phenyl-1H-pyrazole-5-carboxylic acid] | 7.6 µM
7 | CC(C)(C)c1cc(C(=O)O)n(CCc2ccccc2)n1 [Example 37, 3-tert-butyl-1-(2-phenylethyl)-1H-pyrazole-5-carboxylic acid] | 5.3 µM
8 | CC(C)(C)c1cc(C(=O)O)n(Cc2nnc(-c3ccccc3)o2)n1 [Example 38, 3-tert-butyl-1-[(5-phenyl-1,3,4-oxadiazol-2-yl)methyl]-1H-pyrazole-5-carboxylic acid] | 0.49 µM
9 | CC(C)(C)Cc1cc(C(=O)O)n(Cc2ccccc2)n1 [Example 39, 1-benzyl-3-(2,2-dimethylpropyl)-1H-pyrazole-5-carboxylic acid] | 6.6 µM
10 | CC(C)c1cc(C(=O)O)n(CCc2ccccc2)n1 [Example 40, 1-(2-phenylethyl)-3-(propan-2-yl)-1H-pyrazole-5-carboxylic acid] | > 67 µM
11 | CC(C)(C)CCc1cc(C(=O)O)n(Cc2ccccc2)n1 [Example 41, 1-benzyl-3-(3,3-dimethylbutyl)-1H-pyrazole-5-carboxylic acid] | > 67 µM
12 | CC(C)(C)OC[C@H](NC(=O)c1cc(Cl)cc(Cl)c1)C(=O)O [Example 60, (2S)-3-(tert-butoxy)-2-[(3,5-dichlorophenyl)formamido]propanoic acid] | 1.5 µM
13 | CC(OC(C)(C)C)[C@H](NC(=O)c1cc(Cl)cc(Cl)c1)C(=O)O (stereo partly drawn) [Example 61, (2S)-3-(tert-butoxy)-2-[(3,5-dichlorophenyl)formamido]butanoic acid] | > 67 µM
14 | CC(C)(C)C[C@H](NC(=O)c1ccc(Oc2ccccc2)nc1)C(=O)O [Example 64, (2S)-4,4-dimethyl-2-[(6-phenoxypyridin-3-yl)formamido]pentanoic acid] | 0.065 µM

Other lines, results leading:

Row | IC50 | SMILES
15 | 0.17 µM | CC(C)(C)CC[C@H](NC(=O)c1cc(Cl)cc(Cl)c1)C(=O)O (single isomer, unassigned) [Example 42]
16 | 0.09 µM | CC(C)(C)CC[C@H](NC(=O)c1cc(Cl)c[nH]1)C(=O)O (single isomer, unassigned) [Example 43]
17 | 2.1 µM | CC(C)(C)c1cc(C(=O)O)n(Cc2cc(Cl)cc(Cl)c2)n1 [Example 32, 3-tert-butyl-1-[(3,5-dichlorophenyl)methyl]-1H-pyrazole-5-carboxylic acid]
18 | 4.3 µM | CC(C)C[C@H](NC(=O)c1ccc(Cl)c(Cl)c1)C(=O)O [Example 45, (2S)-2-[(3,4-dichlorophenyl)formamido]-4-methylpentanoic acid]
19 | 2.7 µM | CC(C)C[C@H](NC(=O)c1cc(Cl)cc(Cl)c1)C(=O)O [Example 46, (2S)-2-[(3,5-dichlorophenyl)formamido]-4-methylpentanoic acid]
20 | 4.5 µM | CC(C)C[C@H](NC(=O)c1cccc(Cl)c1)C(=O)O [Example 47, (2S)-2-[(3-chlorophenyl)formamido]-4-methylpentanoic acid]
21 | 6.8 µM | COc1cccc(C(=O)N[C@@H](CC(C)C)C(=O)O)c1 [Example 48, (2S)-2-[(3-methoxyphenyl)formamido]-4-methylpentanoic acid]
22 | 6.8 µM | CC(C)C[C@H](NC(=O)C(C)(C)Cc1ccc(Cl)cc1)C(=O)O [Example 49, (2S)-2-{2-[(4-chlorophenyl)methyl]-2-methylpropanamido}-4-methylpentanoic acid]
23 | 5.3 µM | CC(C)C[C@H](NC(=O)c1cnn(C)c1)C(=O)O [Example 50, (2S)-4-methyl-2-[(1-methyl-1H-pyrazol-4-yl)formamido]pentanoic acid]
24 | 6.3 µM | CC(C)C[C@H](NC(=O)c1cnc2ccccc2n1)C(=O)O [Example 51, (2S)-4-methyl-2-[(quinoxalin-2-yl)formamido]pentanoic acid]
25 | 25.3 µM | CC(C)C[C@H](NC(=O)C1CCCC1)C(=O)O [Example 52, (2S)-2-(cyclopentylformamido)-4-methylpentanoic acid]
26 | 14.4 µM | CC(C)C[C@H](NC(=O)C1CN(Cc2cc(Cl)cc(Cl)c2)CCO1)C(=O)O (stereo partly drawn) [Example 53, (2S)-2-({4-[(3,5-dichlorophenyl)methyl]morpholin-2-yl}formamido)-4-methylpentanoic acid]
27 | 17.1 µM | C=C(C)C[C@H](NC(=O)c1cc(Cl)cc(Cl)c1)C(=O)O [Example 54, (2S)-2-[(3,5-dichlorophenyl)formamido]-4-methylpent-4-enoic acid]
28 | 10.7 µM | O=C(N[C@@H](CC1CC1)C(=O)O)c1cc(Cl)cc(Cl)c1 [Example 55, (2S)-3-cyclopropyl-2-[(3,5-dichlorophenyl)formamido]propanoic acid]
29 | 2.3 µM | O=C(N[C@@H](CC1CCCCC1)C(=O)O)c1cc(Cl)cc(Cl)c1 [Example 56, (2S)-3-cyclohexyl-2-[(3,5-dichlorophenyl)formamido]propanoic acid]
30 | 0.35 µM | CC(C)(C)C[C@H](NC(=O)c1cc(Cl)cc(Cl)c1)C(=O)O [Example 57, (2S)-2-[(3,5-dichlorophenyl)formamido]-4,4-dimethylpentanoic acid]
31 | 18 µM | O=C(N[C@@H](CC12CC(C1)C2)C(=O)O)c1cc(Cl)cc(Cl)c1 [Example 58, (2S)-3-{bicyclo[1.1.1]pentan-1-yl}-2-[(3,5-dichlorophenyl)formamido]propanoic acid]
32 | > 67 µM | O=C(N[C@@H](Cc1ccccc1)C(=O)O)c1cc(Cl)cc(Cl)c1 [Example 59, (2S)-2-[(3,5-dichlorophenyl)formamido]-3-phenylpropanoic acid]
33 | 6.9 µM | CC(C)(C)CC(NC(=O)c1cc(Cl)cc(Cl)c1)c1nn[nH]n1 (centres unmarked) [Example 62, 3,5-dichloro-N-[3,3-dimethyl-1-(2H-1,2,3,4-tetrazol-5-yl)butyl]benzamide]
34 | 10.8 µM | CC(C)C[C@H](NC(c1cc(Cl)cc(Cl)c1)C(F)(F)F)C(=O)O (stereo partly drawn) [Example 63, (2S)-2-{[1-(3,5-dichlorophenyl)-2,2,2-trifluoroethyl]amino}-4-methylpentanoic acid]

Biological target: T2, hSortilin (Homo sapiens, UniProt Q99523)
T2 sequence (Q99523 78-831): T1 sequence (Q99523 78-831)
Test: Neurotensin SPA assay with [125I]-Neurotensin
Type: binding
Settings: [125I]-Neurotensin; read-out: Observed IC50
Source text: All values reported are average of at least 4 determinations.^8

Row | IC50 | SMILES
35 | 0.12 µM | CC(C)(C)CC[C@H](NC(=O)c1ccc(Oc2ccccc2)nc1)C(=O)O (racemic) [*Example 44]

Same assay, conditions: observed versus expected IC50

Row | Fold difference between calculated and expected | SMILES
36 | 6 | CC(C)(C)CC[C@H](NC(=O)c1ccc(Oc2ccccc2)nc1)C(=O)O (racemic) [*Example 44]

Test system: not listed separately
Test: Poloxamer gelling tests at 20° C. and 37° C.
Type: physicochemical
Settings: 14% poloxamer gel, compound at 1 mg/mL
Source text: In a preferred embodiment, the sortilin antagonists herein described may be administered in a gel formulation, preferably a Poloxamer 407 gel formulation. Said formulation may comprise the following excipients, reactants and solvents; Poloxamer 407, 5% glucose, Sodium dihydrogenophosphate, Di-sodium hydrogenophosphate, acetonitrile, trifluoroacetic acid and de-ionized water. Preferably, the gel formulation is a 14% poloxamer solution in diluted pH 7.4 phosphate buffer (0.013M) in deionized water. […] (body temperature), see Table 1 below. […] Accordingly, the aforementioned gel formulation is an appropriate vehicle solution to administer said compounds.

Row | SMILES | properties of the poloxamer gel formulation after addition of compound
37 | Cc1cccc(NC(=O)c2ccc(C(F)(F)F)cc2C(=O)O)n1 [Example 8, 2-[(6-methylpyridin-2-yl)carbamoyl]-5-(trifluoromethyl)benzoic acid] | unaltered

Biological target: T2, hSortilin
Test: not given
Settings: expected value, compared with the [125I]-Neurotensin SPA result; cited from earlier work

Row | SMILES | IC50
38 | CC(C)(C)CC[C@H](NC(=O)c1ccc(Oc2ccccc2)nc1)C(=O)O (racemic) [*Example 44] | 0.02 µM
